± gives the expanded uncertainty stated by the source.
Experiment: xn = mol fraction of the nth substance listed
Details: 101 kPa, Liquid; for viscosity: Capillary tube (Ostwald / Ubbelohde) method; for mass density: Vibrating tube method

CC(C)CO [2-methyl-1-propanol] + CC(C)O
Details	mass density, 293.15 K [kg/m3]	mass density, 303.15 K [kg/m3]	mass density, 313.15 K [kg/m3]	mass density, 323.15 K [kg/m3]	mass density, 333.15 K [kg/m3]	viscosity, 293.15 K [mPa·s]	viscosity, 303.15 K [mPa·s]	viscosity, 313.15 K [mPa·s]	viscosity, 323.15 K [mPa·s]	viscosity, 333.15 K [mPa·s]
x1 = 0.1495	788.29 ± 0.17	779.93 ± 0.18	771.29 ± 0.18	762.29 ± 0.18	752.87 ± 0.18	2.45 ± 0.1	1.817 ± 0.1	1.259 ± 0.1	0.983 ± 0.1	0.648 ± 0.1
x1 = 0.2001	789.25 ± 0.18	780.93 ± 0.18	772.34 ± 0.18	763.4 ± 0.18	754.05 ± 0.18	2.498 ± 0.1	1.839 ± 0.1	1.28 ± 0.1	0.999 ± 0.1	0.663 ± 0.1
x1 = 0.3	791.09 ± 0.18	782.85 ± 0.18	774.35 ± 0.19	765.53 ± 0.19	756.31 ± 0.19	2.621 ± 0.1	1.907 ± 0.1	1.331 ± 0.1	1.035 ± 0.1	0.696 ± 0.1
x1 = 0.4249	793.26 ± 0.19	785.12 ± 0.19	776.74 ± 0.19	768.04 ± 0.19	758.97 ± 0.2	2.81 ± 0.1	2.021 ± 0.1	1.418 ± 0.1	1.095 ± 0.1	0.745 ± 0.1
x1 = 0.5189	794.8 ± 0.2	786.73 ± 0.2	778.43 ± 0.2	769.83 ± 0.2	760.87 ± 0.2	2.976 ± 0.1	2.131 ± 0.1	1.505 ± 0.1	1.158 ± 0.1	0.794 ± 0.1
x1 = 0.6202	796.38 ± 0.2	788.38 ± 0.21	780.17 ± 0.21	771.67 ± 0.21	762.82 ± 0.21	3.184 ± 0.1	2.271 ± 0.1	1.617 ± 0.1	1.237 ± 0.1	0.857 ± 0.1
x1 = 0.7166	797.83 ± 0.21	789.9 ± 0.21	781.76 ± 0.21	773.35 ± 0.22	764.6 ± 0.22	3.395 ± 0.1	2.417 ± 0.1	1.732 ± 0.1	1.32 ± 0.1	0.921 ± 0.1
x1 = 0.8005	799.06 ± 0.22	791.18 ± 0.22	783.1 ± 0.22	774.76 ± 0.22	766.09 ± 0.22	3.594 ± 0.1	2.547 ± 0.1	1.837 ± 0.1	1.394 ± 0.1	0.979 ± 0.1
x1 = 0.9001	800.47 ± 0.23	792.65 ± 0.23	784.64 ± 0.23	776.38 ± 0.23	767.81 ± 0.23	3.838 ± 0.1	2.709 ± 0.1	1.963 ± 0.1	1.483 ± 0.1	1.051 ± 0.1

NCCCO [3-amino-1-propanol] + CCCO
Details	mass density, 293.15 K [kg/m3]	mass density, 303.15 K [kg/m3]	mass density, 313.15 K [kg/m3]	mass density, 323.15 K [kg/m3]	mass density, 333.15 K [kg/m3]	viscosity, 293.15 K [mPa·s]	viscosity, 303.15 K [mPa·s]	viscosity, 313.15 K [mPa·s]	viscosity, 323.15 K [mPa·s]	viscosity, 333.15 K [mPa·s]
x1 = 0.1088	826.73 ± 0.15	818.68 ± 0.15	810.49 ± 0.15	802.16 ± 0.15	793.63 ± 0.15	2.978 ± 0.1	2.081 ± 0.1	1.401 ± 0.1	0.999 ± 0.1	0.579 ± 0.1
x1 = 0.2019	845.91 ± 0.15	837.85 ± 0.15	829.65 ± 0.15	821.33 ± 0.15	812.86 ± 0.16	4.164 ± 0.1	2.839 ± 0.1	2.061 ± 0.1	1.474 ± 0.1	–
x1 = 0.2993	865.53 ± 0.16	857.43 ± 0.16	849.23 ± 0.16	840.93 ± 0.16	832.49 ± 0.16	5.873 ± 0.11	3.89 ± 0.1	2.864 ± 0.1	2.11 ± 0.1	1.266 ± 0.1
x1 = 0.4099	886.82 ± 0.17	878.7 ± 0.17	870.51 ± 0.17	862.22 ± 0.17	853.84 ± 0.17	8.435 ± 0.11	5.443 ± 0.11	3.97 ± 0.1	2.95 ± 0.1	1.828 ± 0.1
x1 = 0.5002	903.78 ± 0.18	895.67 ± 0.18	887.49 ± 0.18	879.21 ± 0.18	870.85 ± 0.19	11.26 ± 0.12	7.04 ± 0.11	5.05 ± 0.1	3.657 ± 0.1	2.352 ± 0.1
x1 = 0.6014	922.34 ± 0.18	914.25 ± 0.18	906.08 ± 0.18	897.8 ± 0.2	889.48 ± 0.18	15.35 ± 0.13	9.477 ± 0.11	6.59 ± 0.11	4.685 ± 0.1	3.105 ± 0.1
x1 = 0.6995	939.59 ± 0.18	931.51 ± 0.18	923.4 ± 0.18	915.21 ± 0.19	907.01 ± 0.19	20.08 ± 0.15	12.29 ± 0.12	8.276 ± 0.11	5.816 ± 0.11	3.907 ± 0.1
x1 = 0.8091	958.11 ± 0.19	950.09 ± 0.2	942.03 ± 0.2	933.93 ± 0.2	925.77 ± 0.2	26.44 ± 0.18	15.93 ± 0.14	10.5 ± 0.12	7.232 ± 0.11	4.917 ± 0.11
x1 = 0.9003	972.64 ± 0.21	964.64 ± 0.21	956.59 ± 0.21	948.49 ± 0.21	940.36 ± 0.21	32.71 ± 0.22	19.52 ± 0.16	12.63 ± 0.13	8.57 ± 0.11	5.829 ± 0.11

CC(C)CO [2-methyl-1-propanol] + CCCO
Details	mass density, 293.15 K [kg/m3]	mass density, 303.15 K [kg/m3]	mass density, 313.15 K [kg/m3]	mass density, 323.15 K [kg/m3]	mass density, 333.15 K [kg/m3]	viscosity, 293.15 K [mPa·s]	viscosity, 303.15 K [mPa·s]	viscosity, 313.15 K [mPa·s]	viscosity, 323.15 K [mPa·s]	viscosity, 333.15 K [mPa·s]
x1 = 0.1038	803.39 ± 0.15	795.39 ± 0.15	787.25 ± 0.15	778.91 ± 0.16	770.34 ± 0.16	2.147 ± 0.1	1.586 ± 0.1	1.079 ± 0.1	0.835 ± 0.1	0.508 ± 0.1
x1 = 0.1962	803.24 ± 0.15	795.27 ± 0.16	787.16 ± 0.16	778.85 ± 0.16	770.31 ± 0.16	2.269 ± 0.1	1.657 ± 0.1	1.14 ± 0.1	0.88 ± 0.1	0.545 ± 0.1
x1 = 0.2944	803.09 ± 0.16	795.15 ± 0.16	787.07 ± 0.16	778.79 ± 0.16	770.27 ± 0.17	2.413 ± 0.1	1.744 ± 0.1	1.21 ± 0.1	0.93 ± 0.1	0.588 ± 0.1
x1 = 0.4058	802.91 ± 0.17	795.01 ± 0.17	786.96 ± 0.17	778.71 ± 0.17	770.2 ± 0.17	2.594 ± 0.1	1.855 ± 0.1	1.297 ± 0.1	0.991 ± 0.1	0.641 ± 0.1
x1 = 0.504	802.75 ± 0.17	794.88 ± 0.18	786.86 ± 0.18	778.62 ± 0.18	770.13 ± 0.18	2.768 ± 0.1	1.967 ± 0.1	1.382 ± 0.1	1.052 ± 0.1	0.693 ± 0.1
x1 = 0.6041	802.58 ± 0.18	794.74 ± 0.19	786.74 ± 0.19	778.52 ± 0.19	770.04 ± 0.19	2.961 ± 0.1	2.099 ± 0.1	1.487 ± 0.1	1.126 ± 0.1	0.753 ± 0.1
x1 = 0.7019	802.41 ± 0.2	794.59 ± 0.2	786.61 ± 0.2	778.41 ± 0.2	769.94 ± 0.2	3.172 ± 0.1	2.253 ± 0.1	1.611 ± 0.1	1.217 ± 0.1	0.83 ± 0.1
x1 = 0.8072	802.21 ± 0.21	794.41 ± 0.21	786.45 ± 0.21	778.26 ± 0.21	769.8 ± 0.21	3.452 ± 0.1	2.448 ± 0.1	1.767 ± 0.1	1.335 ± 0.1	0.928 ± 0.1
x1 = 0.8996	–	794.24 ± 0.22	786.29 ± 0.22	778.11 ± 0.22	769.64 ± 0.23	–	2.643 ± 0.1	1.914 ± 0.1	1.446 ± 0.1	1.018 ± 0.1

Source: the NIST ThermoML archive (doi:10.1021/je3011634)
